Measured values published in patent US20250368648A1, “MULTI-CYCLIC IRAK AND FLT3 INHIBITING COMPOUNDS AND USES THEREOF” (CHILDREN'S HOSPITAL MEDICAL CENTER, priority 2022, published 2025).

Tests used:
[1] = molecular target: T1, IRAK1 (Homo sapiens, UniProt P51617); experiment: RBC HotSpot Kinase Assay, IRAK1; format: biochemical; conditions: HotSpot functional assay, isolated kinase enzyme, 33P-ATP
T1 construct: purchased RBC (Reaction Biology) HotSpot assay
Text: (§1) This assay uses the isolated kinase enzyme. This assay is very useful for determining competition of the inhibitor for ATP and/or substrates and for measuring the kinetics of enzyme inhibition. […] Unlike kinase binding assays that measure competition for ATP, the HotSpot Kinase Assay is a functional assay that measures catalytic activity; as such it measures relative functional potency regardless of the mechanism of enzyme inhibition. This assay uses the form of the various enzymes that are easiest to express, which may not necessarily be the form of the enzyme that exist in the cell. (Sometimes the carboxy terminus has been truncated to aid in expression, or, if it is a receptor kinase, the enzyme itself is isolated from the other parts of the receptor that are involved in regulating kinase activity.)
(§2) The reagent used was as follows: Base Reaction buffer; 20 mM Hepes (pH 7.5), 10 mM MgCl2, 1 mM EGTA, 0.01% Brij35, 0.02 mg/mi BSA, 0.1 mM Na3VO4, 2 mM DTT, 1% DMSO. Required cofactors were added individually to each kinase reaction.
(§3) The reaction procedure was as follows: • 1) Substrates were prepared in freshly prepared Reaction Buffer. • 2) Any required cofactors were delivered to the substrate solution above. • 3) Kinase was delivered into the substrate solution and gently mixed. • 4) Compounds were delivered in 100% DMSO into the kinase reaction mixture by Acoustic technology (Echo550, nanoliter range), followed by incubation for 20 min at room temp. • 5) ^33P-ATP was delivered into the reaction mixture to initiate the reaction. • 6) The mixture was incubated for 2 hours at room temperature. • 7) Kinase activity was detected by P81 filter-binding method.

[2] = molecular target: T2, FLT3 (Homo sapiens, UniProt P36888); experiment: RBC HotSpot Kinase Assay, FLT3; format: biochemical; parameters: purchased RBC (Reaction Biology) HotSpot assay; conditions: HotSpot functional assay, isolated kinase enzyme, 33P-ATP
T2 sequence (P36888 27-993): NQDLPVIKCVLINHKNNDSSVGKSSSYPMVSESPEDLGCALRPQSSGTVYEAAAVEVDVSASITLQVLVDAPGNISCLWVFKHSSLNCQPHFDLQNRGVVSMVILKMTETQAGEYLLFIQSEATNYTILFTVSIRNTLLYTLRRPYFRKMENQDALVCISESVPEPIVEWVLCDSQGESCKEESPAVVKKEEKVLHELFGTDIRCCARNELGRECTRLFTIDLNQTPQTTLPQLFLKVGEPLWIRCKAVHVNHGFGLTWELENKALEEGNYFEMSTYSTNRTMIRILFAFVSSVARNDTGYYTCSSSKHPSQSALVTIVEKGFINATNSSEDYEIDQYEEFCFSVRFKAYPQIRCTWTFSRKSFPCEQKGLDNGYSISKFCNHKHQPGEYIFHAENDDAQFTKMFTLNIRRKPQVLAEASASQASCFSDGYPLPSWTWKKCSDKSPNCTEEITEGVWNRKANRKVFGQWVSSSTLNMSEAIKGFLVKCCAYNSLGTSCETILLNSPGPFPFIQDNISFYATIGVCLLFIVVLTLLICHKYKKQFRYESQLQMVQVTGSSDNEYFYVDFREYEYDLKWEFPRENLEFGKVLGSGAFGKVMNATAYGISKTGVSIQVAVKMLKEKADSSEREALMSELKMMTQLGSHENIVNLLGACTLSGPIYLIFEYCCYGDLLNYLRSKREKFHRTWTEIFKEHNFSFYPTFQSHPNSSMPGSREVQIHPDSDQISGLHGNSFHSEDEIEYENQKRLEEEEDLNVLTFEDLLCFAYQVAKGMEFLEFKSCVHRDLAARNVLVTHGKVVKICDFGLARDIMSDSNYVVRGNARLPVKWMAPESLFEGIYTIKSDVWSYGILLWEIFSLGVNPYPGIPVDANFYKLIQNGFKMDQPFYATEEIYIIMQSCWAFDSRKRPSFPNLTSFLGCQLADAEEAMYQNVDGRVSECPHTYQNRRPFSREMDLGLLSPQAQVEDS
Text: as §1, §2, §3

[3] = molecular target: T3, IRAK4 (Homo sapiens, UniProt Q9NWZ3); experiment: RBC HotSpot Kinase Assay, IRAK4; format: biochemical; parameters: purchased RBC (Reaction Biology) HotSpot assay; conditions: HotSpot functional assay, isolated kinase enzyme, 33P-ATP
T3 sequence (Q9NWZ3 1-460): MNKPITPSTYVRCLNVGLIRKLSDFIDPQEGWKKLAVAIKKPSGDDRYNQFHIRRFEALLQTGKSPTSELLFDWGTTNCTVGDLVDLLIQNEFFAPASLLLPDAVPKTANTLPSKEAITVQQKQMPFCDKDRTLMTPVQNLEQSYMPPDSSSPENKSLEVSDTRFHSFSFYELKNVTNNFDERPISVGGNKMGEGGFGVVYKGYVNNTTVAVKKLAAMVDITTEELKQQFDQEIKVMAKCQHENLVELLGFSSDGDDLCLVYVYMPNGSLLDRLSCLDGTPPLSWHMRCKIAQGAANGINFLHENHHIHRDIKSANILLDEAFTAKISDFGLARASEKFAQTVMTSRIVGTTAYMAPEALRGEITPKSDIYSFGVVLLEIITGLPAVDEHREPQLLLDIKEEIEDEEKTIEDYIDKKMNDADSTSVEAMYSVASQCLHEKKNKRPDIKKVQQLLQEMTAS
Text: as §1, §2, §3

[4] = tested on: THP1 cells; experiment: Combination drug screening, Cell Titer Glo, THP1 cells; conditions: THP1 cells; for Excess HSA Score: sum score, 10 × 10 dataset, 48 hours;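 as to all read-outs here: luminescence read out in 1536-well plates seeded with 500 THP1 cells per well, each drug spanning a 10-point concentration range in the combination matrix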
Text: A smaller concentration indicates higher potency to synergize with Venetoclax. […] The numbers in each cell represent the % response (left) or the Delta Bliss score (right) at each given concentration combination.
A smaller concentration indicates higher potency to synergize with azacitidine. […] The numbers in each cell represent the % response (left) or the Delta Bliss score (right) at each given concentration combination.
(§4) This is a cell line that has the FLT3 ITD mutation but also the FLT3 D835Y kinase domain mutation. […] Excess HSA is a measure of synergy vs. additivity or antagonism, wherein a negative Excess HSA value is indicative of synergy.
Briefly, 10 nL of compounds were acoustically dispensed into 1536-well white polystyrene tissue culture-treated plates with an Echo 550 acoustic liquid handler (Labcyte). MOLM14 (D835Y) or THP1 cells were then added to compound-containing plates at a density of 500-cells/well in 5 μL of medium. A 10-point custom concentration range was used for all listed drugs. […] 48h post compound addition, 3 μL of Cell Titer Glo (Promega) were added to each well and plates were incubated at room temperature for 15 minutes with the stainless-steel lid in place. Luminescence readings were taken using a Viewlux imager (PerkinElmer) with a 2 second exposure time per plate.

[5] = tested on: MOLM14 (D835Y) cells; experiment: Combination drug screening, Cell Titer Glo, MOLM14 (D835Y) cells; conditions: MOLM14(D835Y) cells;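 also: MOLM14 cells with FLT3 ITD plus D835Y, 500 per well in 1536-well plates, 10-point dose ranges, luminescent viability after 48 h, negative Excess HSA indicates synergy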
Method: Briefly, 10 nL of the compound shown below was acoustically dispensed into 1536-well white polystyrene tissue culture-treated plates with an Echo 550 acoustic liquid handler (Labcyte). Cells were then added to compound-containing plate at a density of 500-cells/well in 5 μL of medium. A 6-point or 10-point custom concentration range was used for all listed drugs. Plates were incubated for 48 hours at standard incubator conditions covered by a stainless steel gasketed lid to prevent evaporation. 48h post compound addition, 3 μL of Cell Titer Glo (Promega) were added to each well and plates were incubated at room temperature for 15 minutes with the stainless-steel lid in place. Luminescence readings were taken using a Viewlux imager (PerkinElmer) with a 2 second exposure time per plate.
A smaller concentration indicates higher potency to synergize with Venetoclax.
A smaller concentration indicates higher potency to synergize with azacitidine.
as §4

[6] = combination therapy of Compound 45a and the named additional compound, 110 × 10 dataset
[7] = combination therapy of Compound 46a and the named additional compound, 110 × 10 dataset
[8] = combination therapy of Compound 47a and the named additional compound, 110 × 10 dataset
[9] = combination therapy of Compound 48a and the named additional compound, 110 × 10 dataset
[10] = combination therapy of Compound 102 and the named additional compound, 10 × 10 dataset
[11] = combination therapy of Gilteritinib (a FLT3/AXL inhibitor) and the named additional compound, 110 × 10 dataset
[12] = combination therapy of PF-06650833 (an IRAK4 selective inhibitor) and the named additional compound, 110 × 10 dataset
[13] = combination therapy of Quizartinib (a FLT3/Kit/PDGFRa inhibitor) and the named additional compound, 110 × 10 dataset
[14] = combination therapy of emavusertib (CA-4948) (a FLT3/IRAK4 inhibitor) and the named additional compound, 110 × 10 dataset

T1 sequence (P51617 whole entry): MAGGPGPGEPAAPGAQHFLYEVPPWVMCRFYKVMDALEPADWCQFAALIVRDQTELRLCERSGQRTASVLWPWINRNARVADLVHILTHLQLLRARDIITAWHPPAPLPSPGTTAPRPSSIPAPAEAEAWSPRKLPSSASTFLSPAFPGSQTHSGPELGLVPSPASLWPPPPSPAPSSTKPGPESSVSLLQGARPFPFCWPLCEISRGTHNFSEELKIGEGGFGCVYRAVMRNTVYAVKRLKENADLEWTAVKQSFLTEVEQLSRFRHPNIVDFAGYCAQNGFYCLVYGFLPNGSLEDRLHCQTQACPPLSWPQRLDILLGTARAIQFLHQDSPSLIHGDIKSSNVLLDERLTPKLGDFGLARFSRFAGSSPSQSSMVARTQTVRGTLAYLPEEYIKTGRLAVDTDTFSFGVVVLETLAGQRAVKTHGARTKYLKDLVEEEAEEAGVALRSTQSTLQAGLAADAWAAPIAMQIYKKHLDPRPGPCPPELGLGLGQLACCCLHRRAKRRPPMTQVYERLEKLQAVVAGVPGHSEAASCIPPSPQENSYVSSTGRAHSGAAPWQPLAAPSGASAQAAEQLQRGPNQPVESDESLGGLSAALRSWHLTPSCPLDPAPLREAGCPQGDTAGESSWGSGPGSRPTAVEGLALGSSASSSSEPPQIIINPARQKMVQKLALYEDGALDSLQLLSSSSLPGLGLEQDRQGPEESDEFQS

SMILES: COc1cc2ncc(-c3nc(N[C@H]4CNC[C@@H]4F)c(F)cc3F)n2nc1C1CC(C)(C)C1 [Compound 8a, 6-(6-(3,3-dimethylcyclobutyl)-7-methoxyimidazo[1,2-b]pyridazin-3-yl)-3,5-difluoro-N-((3S,4S)-4-fluoropyrrolidin-3-yl)pyridin-2-amine]
- IC50 [1]: 190 nM
- IC50 [2]: 0.6 nM
- IC50 [3]: 9 nM

SMILES: COc1cc2ncc(-c3nc(N[C@H]4CNCC[C@@H]4F)c(F)cc3F)n2nc1C1CC(C)(C)C1 [Compound 9a, 6-(6-(3,3-dimethylcyclobutyl)-7-methoxyimidazo[1,2-b]pyridazin-3-yl)-3,5-difluoro-N-((3S,4S)-4-fluoropiperidin-3-yl)pyridin-2-amine]
- IC50 [1]: 74 nM
- IC50 [2]: < 0.5 nM
- IC50 [3]: 26 nM

SMILES: COc1cc2ncc(-c3nc(N[C@@H]4CCCNC4)c(F)cc3F)n2nc1C1CC2(CCC2)C1 [Compound 11a, (R)-3,5-difluoro-6-(7-methoxy-6-(spiro[3.3]heptan-2-yl)imidazo[1,2-b]pyridazin-3-yl)-N-(piperidin-3-yl)pyridin-2-amine]
- IC50 [1]: 30 nM
- IC50 [2]: < 0.5 nM
- IC50 [3]: 16 nM

SMILES: CC1(C)CCC(CN2CCN(c3ccc(C(=O)NS(=O)(=O)c4ccc(NCC5CCOCC5)c([N+](=O)[O-])c4)c(Oc4cnc5[nH]ccc5c4)c3)CC2)=C(c2ccc(Cl)cc2)C1 [Venetoclax (ABT-199), Venetoclax]
- Comments ([4]; combination with CG-806): Synergistic (a negative Excess HSA value is indicative of synergy)
- Comments ([4]; combination with Compound 45a): Synergistic (a negative Excess HSA value is indicative of synergy)
- Comments ([4]; combination with Compound 46a): Synergistic (a negative Excess HSA value is indicative of synergy)
- Comments ([4]; combination with Compound 47a): Synergistic (a negative Excess HSA value is indicative of synergy)
- Comments ([4]; combination with Compound 102): Synergistic (a negative Excess HSA value is indicative of synergy)
- Comments ([4]; combination with Compound 106): Synergistic (a negative Excess HSA value is indicative of synergy)
- Comments ([4]; combination with Gilteritinib): Synergistic (a negative Excess HSA value is indicative of synergy)
- Excess HSA Score ([4]; listed as compound in combination with CG-806 (a FLT3/BTK inhibitor)): −1431.1287
- Excess HSA Score ([4]; listed as compound in combination with Compound 45a): −1070
- Excess HSA Score ([4]; listed as compound in combination with Compound 46a): −1405
- Excess HSA Score ([4]; listed as compound in combination with Compound 47a): −1419
- Excess HSA Score ([4]; listed as compound in combination with Compound 48a): −628.4379
- Excess HSA Score ([4]; listed as compound in combination with Compound 102): −1775
- Excess HSA Score ([4]; listed as compound in combination with Compound 106): −1478
- Excess HSA Score ([4]; listed as compound in combination with Gilteritinib (a FLT3/AXL inhibitor)): −1448
- Excess HSA Score ([4]; listed as compound in combination with PF-06650833 (an IRAK4 selective inhibitor)): −429.3
- Excess HSA Score ([4]; listed as compound in combination with Quizartinib (a FLT3/Kit/PDGFRa inhibitor)): −216
- Excess HSA Score ([4]; listed as compound in combination with emavusertib (CA-4948) (a FLT3/IRAK4 inhibitor)): −526.5
- Sum Excess HSA Score ([5]; combination therapy of CG-806 (a FLT3/BTK inhibitor) and the named additional compound, 110 × 10 dataset): −751
- Comments (synergistic / antagonistic) [5, 6]: Synergistic (a negative Excess HSA value is indicative of synergy)
- Sum Excess HSA Score [5, 6]: −1552
- Comments (synergistic / antagonistic) [5, 7]: Synergistic (a negative Excess HSA value is indicative of synergy)
- Sum Excess HSA Score [5, 7]: −1667
- Comments (synergistic / antagonistic) [5, 8]: Synergistic (a negative Excess HSA value is indicative of synergy)
- Sum Excess HSA Score [5, 8]: −1849
- Comments (synergistic / antagonistic) [5, 9]: Synergistic (a negative Excess HSA value is indicative of synergy)
- Sum Excess HSA Score [5, 9]: −1280.6361
- Comments (synergistic / antagonistic) [5, 10]: Synergistic (a negative Excess HSA value is indicative of synergy)
- Sum Excess HSA Score [5, 10]: −966.5606
- Comments (synergistic / antagonistic) [5, 11]: Synergistic (a negative Excess HSA value is indicative of synergy)
- Sum Excess HSA Score [5, 11]: −1406
- Comments (synergistic / antagonistic) [5, 12]: Synergistic (a negative Excess HSA value is indicative of synergy)
- Sum Excess HSA Score [5, 12]: −1578
- Comments (synergistic / antagonistic) [5, 13]: Synergistic (a negative Excess HSA value is indicative of synergy)
- Sum Excess HSA Score [5, 13]: −1656
- Comments (synergistic / antagonistic) [5, 14]: Synergistic (a negative Excess HSA value is indicative of synergy)
- Sum Excess HSA Score [5, 14]: −1038
- Comments ([5]; combination with Compound 106): Synergistic (a negative Excess HSA value is indicative of synergy)
- Excess HSA Score ([5]; sum score, listed as compound in combination with Compound 106, 10 × 10 dataset, 48 hours): −1540
